Assay results: US7563818B2, “Photosensitizer functionalised nanoparticles” (Cancer Research Technology Limited, priority 2001, dated 2009)
Like-named read-outs stand apart in the source and are kept apart here.

What was measured:
[1] = Singlet oxygen quantum yield, method of Nonell and Braslavsky; format: physicochemical; conditions: for Increase in ΦΔ: addition of 1 mM TOAB to the free Pc
Description: Singlet oxygen quantum yields, ΦΔ, for both the free and bound Pc were determined (Table 1) using the method of Nonell and Braslavsky.^24 The Pc coated nanoparticles were referenced to perinapthenone in ethanol (ΦΔ=0.97)^25, whilst free Pc was referenced to perinapthenone and octa-decyl zinc phthalocyanine^17 in toluene (ΦΔ=1.0 and 0.7 respectively). After deoxygenation of the Pc samples no singlet oxygen could be detected. […] The value of ΦΔ of 0.45 for the free Pc in toluene is consistent with previous measurements of similar metallated Pcs.^26

[2] = Fluorescence lifetime by time-correlated single photon counting; format: physicochemical
Description: Fluorescence lifetime (τ) measurements were obtained by using the method of time-correlated single photon counting. For both the free and bound phthalocyanine optimum fits (X2) were obtained for the double exponential and τ1 and τ2 values are shown in table 1.

[3] = Solubility in polar solvents; format: physicochemical; conditions: polar solvents (e.g. ethanol, methanol, DMSO)
Description: Transmission electron micrographs of the Pc-gold nanoparticles are consistent with those reported by several groups for other thiol-stabilized MPCs in that they show small, 2-4 nm, non-aggregated particles—FIG. 2. […] A similar change in solubility was recently reported by Imahori et al.^23 for a porphyrin self-assembled on gold nanoparticles used as an artificial photosynthetic material.

[4] = cited from earlier work
[5] = double exponential fit, free Pc in toluene, Pc-nanoparticles in ethanol
[6] = in toluene with addition of 1 mM TOAB

Compound	Increase in ΦΔ [1]	Increase in ΦΔ ([1]; listed as free phthaloyanine)	φΔ singlet oxygen quantum yield ([1]; free Pc in toluene, Pc-nanoparticles in ethanol, referenced to perinapthenone (and octa-decyl zinc phthalocyanine for free Pc))	τ1 (yield) [2, 5] [%]	τ1 fluorescence lifetime [2, 5] [ns]	τ2 (yield) [2, 5] [%]	τ2 fluorescence lifetime [2, 5] [ns]	τ1 (yield) [2, 6] [%]	τ1 fluorescence lifetime [2, 6] [ns]	τ2 (yield) [2, 6] [%]	τ2 fluorescence lifetime [2, 6] [ns]	Solubility in polar solvents [3]	ΦΔ singlet oxygen quantum yield of reference ([4]; in ethanol)	ΦΔ singlet oxygen quantum yield of reference ([4]; in toluene)
CCCCCCc1ccc(CCCCCC)c2c1-c1nc3nc(nc4[nH]c(nc5[nH]c(nc-2n1)c1c(CCCCCC)ccc(CCCCCC)c51)c1c(CCCCCC)ccc(CCCCCC)c41)-c1c(C)ccc(CCCCCCCCCCCS)c1-3 [Free Pc, 1,4,8, 11, 15, 18-hexahexyl-22-(11-mercaptoundecyl)-25-methyl phthalocyanine]	ca. 10%	about 10%	0.45	91	2.1	9	1.11	76	0.7	24	1.7	insoluble	–	–
O=C1C=Cc2cccc3cccc1c23 [perinapthenone]	–	–	–	–	–	–	–	–	–	–	–	–	0.97	1.0
octa-decyl zinc phthalocyanine	–	–	–	–	–	–	–	–	–	–	–	–	–	0.7
